Test in all cases: AK assay 384-well format, Prestwick library screening
The test system of one experiment is E. faecium. The class given is cell-based, Enterococcus faecium. The following applies: 50 μM final drug concentration; for fold induction at 50 µM: Enterococcus faecium, 3 h.
Experiment [1] has as its system S. aureus strain USA300-0114. In kind it is cell-based, Staphylococcus aureus. The following applies: 50 μM final drug concentration; for fold induction at 50 µM: Staphylococcus aureus, USA300, 3 h.
A further experiment relates to P. aeruginosa. In kind it is cell-based, Pseudomonas aeruginosa. The conditions noted are these: 50 μM final drug concentration; for fold induction at 50 µM: Pseudomonas aeruginosa, 3 h.
In the next experiment the test system is E. coli. In kind it is cell-based, Escherichia coli. The conditions noted are these: 50 μM final drug concentration; for fold induction at 50 µM: Escherichia coli, 3 h.
For experiment [2], the system named is A. baumannii strain 98-37-09. In kind it is cell-based, Acinetobacter baumannii. The conditions noted are these: 50 μM final drug concentration; for fold induction at 50 µM: Acinetobacter baumannii, 983709, 3 h.
The subject of another experiment is E. cloacae. In kind it is cell-based, Enterobacter cloacae. The following applies: 50 μM final drug concentration; for fold induction at 50 µM: Enterobacter cloacae, 3 h.
The next experiment has as its system K. pneumoniae. In kind it is cell-based, Klebsiella pneumoniae. The following applies: 50 μM final drug concentration; for fold induction at 50 µM: Klebsiella pneumoniae, 3 h.
The mark [3] stands for this setting: planktonic E. faecium, cutoff for positive-scoring molecules 3-fold increase, read-out: AK-based Prestwick Library Screening Results, E. faecium (increase in extracellular AK activity).
Setting [4] is: planktonic S. aureus, cutoff for positive-scoring molecules 3-fold increase, read-out: AK-based Prestwick Library Screening Results, S. aureus (increase in extracellular AK activity).
[5] abbreviates: planktonic P. aeruginosa, cutoff for positive-scoring molecules 3-fold increase, read-out: AK-based Prestwick Library Screening Results, P. aeruginosa (increase in extracellular AK activity).
Setting [6] is: planktonic E. coli, cutoff for positive-scoring molecules 3-fold increase, read-out: AK-based Prestwick Library Screening Results, E. coli (increase in extracellular AK activity).
[7] abbreviates: planktonic A. baumannii, cutoff for positive-scoring molecules 3-fold increase, read-out: AK-based Prestwick Library Screening Results, A. baumannii (increase in extracellular AK activity).
[8] abbreviates: planktonic E. cloacae, cutoff for positive-scoring molecules 3-fold increase, read-out: AK-based Prestwick Library Screening Results, E. cloacae (increase in extracellular AK activity).
[9] abbreviates: planktonic K. pneumoniae, cutoff for positive-scoring molecules 3-fold increase, read-out: AK-based Prestwick Library Screening Results, K. pneumoniae (increase in extracellular AK activity).
Setting [10] is: planktonic E. faecium, positive cutoff 3-fold increase, read-out: AK-based Prestwick library screening result, E. faecium (fold increase in extracellular AK activity).
Where [11] appears, read: planktonic S. aureus, positive cutoff 3-fold increase, read-out: AK-based Prestwick library screening result, S. aureus (fold increase in extracellular AK activity).
Where [12] appears, read: planktonic P. aeruginosa, positive cutoff 3-fold increase, read-out: AK-based Prestwick library screening result, P. aeruginosa (fold increase in extracellular AK activity).
[13] abbreviates: planktonic E. coli, positive cutoff 3-fold increase, read-out: AK-based Prestwick library screening result, E. coli (fold increase in extracellular AK activity).
The mark [14] stands for this setting: planktonic A. baumannii, positive cutoff 3-fold increase, read-out: AK-based Prestwick library screening result, A. baumannii (fold increase in extracellular AK activity).
Setting [15] is: planktonic E. cloacae, positive cutoff 3-fold increase, read-out: AK-based Prestwick library screening result, E. cloacae (fold increase in extracellular AK activity).
[16] abbreviates: planktonic K. pneumoniae, positive cutoff 3-fold increase, read-out: AK-based Prestwick library screening result, K. pneumoniae (fold increase in extracellular AK activity).

Where a name gives a salt, the structure may show the parent alone. Read-outs that look alike come from different tables or passages of the source.

Eight molecules from patent US10004701B2, “Methods and compositions for treating infection” (UNIVERSITY OF ROCHESTER, priority 2012, dated 2018) can be followed below.

For the molecule `NC[C@@H]1O[C@H](O[C@H]2[C@@H](O)[C@H](O[C@@H]3[C@@H](O)[C@H](N)C[C@H](N)[C@H]3O[C@H]3O[C@H](CN)[C@@H](O)[C@H](O)[C@H]3N)O[C@@H]2CO)[C@H](N)[C@@H](O)[C@@H]1O.O=S(=O)(O)O` [Neomycin sulfate], the “AK-based Prestwick Library Screening Results: E. faecium (increase in extracellular AK activity)” value with E. faecium (planktonic E. faecium, 384-well, cutoff for positive-scoring molecules 3-fold increase) was 1.0. For the same molecule, the “AK-based Prestwick Library Screening Results: S. aureus (increase in extracellular AK activity)” value in experiment [1] (planktonic S. aureus, 384-well, cutoff for positive-scoring molecules 3-fold increase) stood at 1.1. The “AK-based Prestwick Library Screening Results: P. aeruginosa (increase in extracellular AK activity)” value in the experiment with P. aeruginosa (planktonic P. aeruginosa, 384-well, cutoff for positive-scoring molecules 3-fold increase) is listed as 0.9. Also, the “AK-based Prestwick Library Screening Results: E. coli (increase in extracellular AK activity)” value in the experiment with E. coli (planktonic E. coli, 384-well, cutoff for positive-scoring molecules 3-fold increase) amounted to 1.2. Moreover, the “AK-based Prestwick Library Screening Results: A. baumannii (increase in extracellular AK activity)” value in experiment [2] (planktonic A. baumannii, 384-well, cutoff for positive-scoring molecules 3-fold increase) was 1.4. In the experiment on E. cloacae (planktonic E. cloacae, 384-well, cutoff for positive-scoring molecules 3-fold increase), the “AK-based Prestwick Library Screening Results: E. cloacae (increase in extracellular AK activity)” value was 1.3. Besides, the “AK-based Prestwick Library Screening Results: K. pneumoniae (increase in extracellular AK activity)” value with K. pneumoniae (planktonic K. pneumoniae, 384-well, cutoff for positive-scoring molecules 3-fold increase) amounted to 1.0.

Turning to `C=C(C)[C@@H]1CC[C@]2(C(=O)O)CC[C@]3(C)[C@H](CC[C@@H]4[C@@]5(C)CC[C@H](O)C(C)(C)[C@@H]5CC[C@]43C)[C@@H]12` [Betulinic acid], the fold induction at 50 µM in the experiment on E. faecium (setting [3]) amounted to 0.9; in experiment [1] (setting [4]), 0.1; with P. aeruginosa (setting [5]) it was 0.6; with E. coli (setting [6]), 0.6; in experiment [2] (setting [7]), 0.6; in the experiment with E. cloacae (setting [8]), 0.7. For the same molecule, the fold induction at 50 µM in the experiment on K. pneumoniae (setting [9]) was found to be 0.5.

Take `O=C(O)/C=C/c1ccc(O)c(O)c1` [Caffeic acid]: the fold induction at 50 µM was 0.9 in the experiment with E. faecium (planktonic, cutoff for positive-scoring molecules 3-fold increase, read-out: AK-based Prestwick Library Screening Results, E. faecium (fold increase in extracellular AK activity)); 0.8 in experiment [1] (planktonic, cutoff for positive-scoring molecules 3-fold increase, read-out: AK-based Prestwick Library Screening Results, S. aureus (fold increase in extracellular AK activity)); 0.9 in the experiment on P. aeruginosa (planktonic, cutoff for positive-scoring molecules 3-fold increase, read-out: AK-based Prestwick Library Screening Results, P. aeruginosa (fold increase in extracellular AK activity)); 1 in the experiment on E. coli (planktonic, cutoff for positive-scoring molecules 3-fold increase, read-out: AK-based Prestwick Library Screening Results, E. coli (fold increase in extracellular AK activity)); 0.8 in experiment [2] (planktonic, cutoff for positive-scoring molecules 3-fold increase, read-out: AK-based Prestwick Library Screening Results, A. baumannii (fold increase in extracellular AK activity)); 1 in the experiment on E. cloacae (planktonic, cutoff for positive-scoring molecules 3-fold increase, read-out: AK-based Prestwick Library Screening Results, E. cloacae (fold increase in extracellular AK activity)). Also, the fold induction at 50 µM in the experiment on K. pneumoniae (planktonic, cutoff for positive-scoring molecules 3-fold increase, read-out: AK-based Prestwick Library Screening Results, K. pneumoniae (fold increase in extracellular AK activity)) is 0.8.

In the case of `[H]/N=C(\N/C(=N/[H])Nc1ccc(Cl)cc1)NC(C)C` [Proguanil hydrochloride], the fold induction at 50 µM in the experiment with E. faecium (setting [10]) came out at 0.8; in experiment [1] (setting [11]) it was 0.9; in the experiment on P. aeruginosa (setting [12]) it was 0.8; in the experiment on E. coli (setting [13]), 0.9; in experiment [2] (setting [14]), 0.9; in the experiment with E. cloacae (setting [15]), 1.1. Further, the fold induction at 50 µM in the experiment on K. pneumoniae (setting [16]) is 0.7.

As for `CC[N+](CC)(CC)CCOc1cccc(OCC[N+](CC)(CC)CC)c1OCC[N+](CC)(CC)CC` [Gallamine triethiodide], the fold induction at 50 µM in the experiment with E. faecium (planktonic E. faecium, 384-well, cutoff for positive-scoring molecules 3-fold increase, read-out: AK-based Prestwick Library Screening Results: E. faecium (increase in extracellular AK activity)) turned out to be 1; in experiment [1] (planktonic S. aureus, 384-well, cutoff for positive-scoring molecules 3-fold increase, read-out: AK-based Prestwick Library Screening Results: S. aureus (increase in extracellular AK activity)), 1.1; in the experiment on P. aeruginosa (planktonic P. aeruginosa, 384-well, cutoff for positive-scoring molecules 3-fold increase, read-out: AK-based Prestwick Library Screening Results: P. aeruginosa (increase in extracellular AK activity)), 1; in the experiment with E. coli (planktonic E. coli, 384-well, cutoff for positive-scoring molecules 3-fold increase, read-out: AK-based Prestwick Library Screening Results: E. coli (increase in extracellular AK activity)), 1.3; in experiment [2] (planktonic A. baumannii, 384-well, cutoff for positive-scoring molecules 3-fold increase, read-out: AK-based Prestwick Library Screening Results: A. baumannii (increase in extracellular AK activity)), 1.2; with E. cloacae (planktonic E. cloacae, 384-well, cutoff for positive-scoring molecules 3-fold increase, read-out: AK-based Prestwick Library Screening Results: E. cloacae (increase in extracellular AK activity)) it was 1.5. Moreover, the fold induction at 50 µM with K. pneumoniae (planktonic K. pneumoniae, 384-well, cutoff for positive-scoring molecules 3-fold increase, read-out: AK-based Prestwick Library Screening Results: K. pneumoniae (increase in extracellular AK activity)) came out at 1.1.

Take `O=C(O)[C@]1(O)C[C@@H](O)[C@@H](O)[C@H](O)C1` [Quinic acid]: the fold induction at 50 µM worked out at 1 with E. faecium (setting [10]); 1.2 in experiment [1] (setting [11]); 1.1 with P. aeruginosa (setting [12]); 1.2 with E. coli (setting [13]); 1.4 in experiment [2] (setting [14]); 1.2 with E. cloacae (setting [15]). The fold induction at 50 µM with K. pneumoniae (setting [16]) was found to be 1.3.

As for `C[C@@H]1CCC[C@H](C)N1NC(=O)c1ccc(Cl)c(S(N)(=O)=O)c1` [Clopamide], the fold induction at 50 µM with E. faecium (setting [3]) stood at 0.9; in experiment [1] (setting [4]) it was 0.7; in the experiment on P. aeruginosa (setting [5]), 0.8; with E. coli (setting [6]) it was 0.8; in experiment [2] (setting [7]), 0.8; with E. cloacae (setting [8]), 1. Besides, the fold induction at 50 µM with K. pneumoniae (setting [9]) turned out to be 0.7.

As to `COC(=O)[C@H]1[C@H]2C[C@H]3c4[nH]c5ccccc5c4CCN3C[C@@H]2CC[C@@H]1O.Cl` [Corynanthine hydrochloride], the “AK-based Prestwick Library Screening Results, E. faecium (increase in extracellular AK activity)” value in the experiment on E. faecium (planktonic E. faecium, cutoff for positive-scoring molecules 3-fold increase) worked out at 1.0. Also, the “AK-based Prestwick Library Screening Results, S. aureus (increase in extracellular AK activity)” value in experiment [1] (planktonic S. aureus, cutoff for positive-scoring molecules 3-fold increase) is recorded as 0.7. For the same molecule, in the experiment on P. aeruginosa (planktonic P. aeruginosa, cutoff for positive-scoring molecules 3-fold increase), the “AK-based Prestwick Library Screening Results, P. aeruginosa (increase in extracellular AK activity)” value came to 0.7. Besides, the “AK-based Prestwick Library Screening Results, E. coli (increase in extracellular AK activity)” value in the experiment on E. coli (planktonic E. coli, cutoff for positive-scoring molecules 3-fold increase) amounted to 0.7. The “AK-based Prestwick Library Screening Results, A. baumannii (increase in extracellular AK activity)” value in experiment [2] (planktonic A. baumannii, cutoff for positive-scoring molecules 3-fold increase) is recorded as 0.6. Moreover, the “AK-based Prestwick Library Screening Results, E. cloacae (increase in extracellular AK activity)” value with E. cloacae (planktonic E. cloacae, cutoff for positive-scoring molecules 3-fold increase) came out at 0.8. The “AK-based Prestwick Library Screening Results, K. pneumoniae (increase in extracellular AK activity)” value in the experiment with K. pneumoniae (planktonic K. pneumoniae, cutoff for positive-scoring molecules 3-fold increase) turned out to be 0.6.
